# Assay results taken from patent publication US20230129485A1, “SYSTEM AND METHOD FOR DETERMINING MATERIAL PROPERTIES OF MOLECULAR SYSTEMS FROM AN AB-INITIO PARAMETERIZED FORCE-FIELD” (InterX, Inc., priority 2021, published 2023).
# Like-named read-outs stand apart in the source and are kept apart here.
# Legend:
# [1] = Free energy of hydration by COSMO-RS
# Procedure, shortened: (§1)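 COSMO solvation free energies were calculated for the molecule set with MolPro because no original-COSMO free energy data were available. SMD and PCM hydration free energies were obtained as received. SMD, PCM and COSMO-RS values cover only molecules that overlap with those computed using the QM-parameterized force field model.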
# [2] = implicit solvent model, values received; cited from earlier work
# [3] = Free energy of hydration by Free Energy Machine Learning Model (FML); conditions: absolute error vs Exp (hydration)
# Excerpt: Machine learning models can be used for free energy determination.
# [4] = implicit solvent model, values received; cited from earlier work; remark: listed apart in the source
# [5] = Free energy of hydration by Polarizable Continuum Model (PCM); conditions: absolute error vs Exp (hydration)
# Procedure, shortened: as §1
# [6] = Free energy of hydration predicted with the QM-parameterized force field model (ARROW FF), classical MD and PIMD simulation in a water box; conditions: for Arrow PIMD8 Error: absolute error vs Exp (hydration)
# Procedure, shortened: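 Classical and PIMD runs (MTS integrator, MTTK barostat at 1 atm) followed minimization and 50 ps equilibration, with 1 ns NPT production per window. Fifteen unequally spaced lambda windows removed all solute-solvent interactions simultaneously in a 32 Å water box. Hydration free energy computed by Bennett acceptance ratio and thermodynamic integration.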
# [7] = Free energy of hydration by Solvation Model Dielectric (SMD) implicit solvent model; conditions: absolute error vs Exp (hydration)
# Procedure, shortened: as §1
# [8] = experimental, cited from earlier work
# [9] = Free energy of hydration by COSMO implicit solvent model (MolPro ver. 2012); conditions: absolute error vs Exp (hydration)
# Procedure, shortened: as §1
# [10] = experimental, cited from earlier work; remark: listed apart in the source
# [11] = CHEX/H2O partition coefficient (log D) predicted with the QM-parameterized force field model (ARROW FF)
# Procedure, shortened: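 Cyclohexane/water partition coefficients were predicted by molecular simulation with a QM-parameterized force field, with bonded force constants and equilibrium values fitted to MP2/aug-cc-pVTZ energies. Solutes carried neutral functional groups, and results from four independent groups were averaged.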
# [12] = CHEX/H2O partition coefficient, experimental, cited from earlier work; for Exp (log D): Table 3
# [13] = Free energy of hydration predicted by polarizable AMOEBA force field, from literature; conditions: Table 5; error of AMOEBA hydration free energy vs experiment
# [14] = Table 5; free energy of hydration, GAFF prediction taken from literature; cited from earlier work
# [15] = Table 5; free energy of hydration, AMOEBA prediction taken from literature; cited from earlier work
# [16] = Free energy of hydration predicted by General Amber Force Field (GAFF), from literature; conditions: Table 5; error of GAFF hydration free energy vs experiment
# [17] = Free energy of solvation in cyclohexane predicted with the QM-parameterized force field model (ARROW FF), MD and PIMD; conditions: Table 4
# Procedure, shortened: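 Solute–cyclohexane interactions decoupled over 15 λ points with soft-core scaling, in MD and path-integral simulations under NPT at 1 atm using PME electrostatics and 9 Å cutoffs. Each window had 50 ps equilibration and 1 ns production; free energies from BAR and TI.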
# [18] = Table 3, free energy of hydration
# [19] = Table 3, absolute error of MD hydration free energy vs experiment
# [20] = Table 3, absolute error of PIMD8 hydration free energy vs experiment
# [21] = Table 3, free energy of solvation in cyclohexane
# [22] = Table 3, absolute error of MD log D vs experiment
# [23] = Table 3, absolute error of PIMD log D vs experiment
structure (smiles),measurement,setting,value
C1CCCC1 [Cyctopentane],COSMO-RS error,[1],0.17 kcal/mol
same,PCM free energy of hydration,[2],-0.20 kcal/mol
same,FML error,[3],0.32 kcal/mol
same,SMD free energy of hydration,[4],1.30 kcal/mol
same,PCM Error,[5],1.40 kcal/mol
same,Arrow PIMD8 Error,[6],0.12 kcal/mol
same,SMD Error,[7],0.10 kcal/mol
CCCCCO [1-Pentanol],COSMO-RS error,[1],0.11 kcal/mol
same,PCM free energy of hydration,[2],-3.30 kcal/mol
same,FML error,[3],0.30 kcal/mol
same,SMD free energy of hydration,[4],-4.00 kcal/mol
same,water Exp (hydration),[8]; [18],-4.47 kcal/mol
same,PCM Error,[5],1.17 kcal/mol
same,water Arrow MD Error,[6]; [19],1.18 kcal/mol
same,water Arrow PIMD8 Error,[6]; [20],0.05 kcal/mol
same,Arrow PIMD8 Error,[6],0.05 kcal/mol
same,SMD Error,[7],0.47 kcal/mol
same,COSMO/Molpro Error,[9],2.21 kcal/mol
CCCCOC(C)=O [ButylAcetate],PCM free energy of hydration,[2],-3.80 kcal/mol
same,CHEX Exp (solvation),[10]; [21],-4.94 kcal/mol
same,FML error,[3],0.61 kcal/mol
same,SMD free energy of hydration,[4],-2.90 kcal/mol
same,water Exp (hydration),[8]; [18],-2.55 kcal/mol
same,PCM Error,[5],1.25 kcal/mol
same,water Arrow MD Error,[6]; [19],0.85 kcal/mol
same,water Arrow PIMD8 Error,[6]; [20],0.07 kcal/mol
same,Arrow PIMD8 Error,[6],0.07 kcal/mol
same,SMD Error,[7],0.35 kcal/mol
same,COSMO/Molpro Error,[9],4.19 kcal/mol
same,log D Arrow MD Error,[11]; [22],0.60
same,log D Arrow PIMD Error,[11]; [23],0.06
same,Exp (log D),[12],1.75
CC=O [acetaldehyde],COSMO-RS error,[1],0.18 kcal/mol
same,FML error,[3],0.03 kcal/mol
same,PCM Error,[5],0.20 kcal/mol
same,water Arrow MD Error,[6]; [19],0.18 kcal/mol
same,water Arrow PIMD8 Error,[6]; [20],0.27 kcal/mol
same,Arrow PIMD8 Error,[6],0.27 kcal/mol
same,SMD Error,[7],0.30 kcal/mol
same,COSMO/Molpro Error,[9],3.97 kcal/mol
Cc1ccccc1O [o-cresol],PCM free energy of hydration,[2],-3.70 kcal/mol
same,CHEX Exp (solvation),[10]; [21],-6.02 kcal/mol
same,FML error,[3],0.19 kcal/mol
same,SMD free energy of hydration,[4],-4.60 kcal/mol
same,water Exp (hydration),[8]; [18],-5.87 kcal/mol
same,PCM Error,[5],2.17 kcal/mol
same,water Arrow MD Error,[6]; [19],1.27 kcal/mol
same,water Arrow PIMD8 Error,[6]; [20],0.28 kcal/mol
same,Arrow PIMD8 Error,[6],0.28 kcal/mol
same,hydration error,[6]; predicted vs experimental free energy of hydration,-1 kcal/mol
same,SMD Error,[7],1.27 kcal/mol
same,COSMO/Molpro Error,[9],1.21 kcal/mol
same,log D Arrow MD Error,[11]; [22],0.67
same,log D Arrow PIMD Error,[11]; [23],0.14
same,Exp (log D),[12],0.11
CCCOC(C)=O [PropylAcetate],PCM free energy of hydration,[2],-3.80 kcal/mol
same,CHEX Exp (solvation),[10]; [21],-4.36 kcal/mol
same,FML error,[3],0.24 kcal/mol
same,SMD free energy of hydration,[4],-3.00 kcal/mol
same,water Exp (hydration),[8]; [18],-2.86 kcal/mol
same,PCM Error,[5],0.94 kcal/mol
same,water Arrow MD Error,[6]; [19],0.64 kcal/mol
same,water Arrow PIMD8 Error,[6]; [20],0.07 kcal/mol
same,Arrow PIMD8 Error,[6],0.07 kcal/mol
same,SMD Error,[7],0.14 kcal/mol
same,COSMO/Molpro Error,[9],4.12 kcal/mol
same,log D Arrow MD Error,[11],0.65
same,log D Arrow PIMD Error,[11],0.37
same,Exp (log D),[12],1.10
C1CC1 [Cyclopropane],COSMO-RS error,[1],0.40 kcal/mol
same,PCM free energy of hydration,[2],-0.60 kcal/mol
same,FML error,[3],0.76 kcal/mol
same,SMD free energy of hydration,[4],0.10 kcal/mol
same,water Exp (hydration),[8]; [18],0.75 kcal/mol
same,PCM Error,[5],1.35 kcal/mol
same,water Arrow MD Error,[6]; [19],0.30 kcal/mol
same,water Arrow PIMD8 Error,[6]; [20],0.29 kcal/mol
same,Arrow PIMD8 Error,[6],0.29 kcal/mol
same,SMD Error,[7],0.65 kcal/mol
same,COSMO/Molpro Error,[9],2.05 kcal/mol
CCC(O)CC [3-Pentanol],FML error,[3],0.58 kcal/mol
same,water Exp (hydration),[8]; [18],-4.35 kcal/mol
same,water Arrow MD Error,[6]; [19],1.36 kcal/mol
same,water Arrow PIMD8 Error,[6]; [20],0.15 kcal/mol
same,Arrow PIMD8 Error,[6],0.15 kcal/mol
same,COSMO/Molpro Error,[9],1.01 kcal/mol
CCCC(C)O (centres unmarked) [2-Pentanol],FML error,[3],0.40 kcal/mol
same,water Exp (hydration),[8]; [18],-4.39 kcal/mol
same,water Arrow MD Error,[6]; [19],1.68 kcal/mol
same,water Arrow PIMD8 Error,[6]; [20],0.08 kcal/mol
same,Arrow PIMD8 Error,[6],0.08 kcal/mol
same,COSMO/Molpro Error,[9],1.38 kcal/mol
Cc1cccc(O)c1 [m-cresol],PCM free energy of hydration,[2],-4.00 kcal/mol
same,CHEX Exp (solvation),[10]; [21],-5.20 kcal/mol
same,FML error,[3],0.72 kcal/mol
same,SMD free energy of hydration,[4],-4.80 kcal/mol
same,water Exp (hydration),[8]; [18],-5.49 kcal/mol
same,PCM Error,[5],1.49 kcal/mol
same,water Arrow MD Error,[6]; [19],2.12 kcal/mol
same,water Arrow PIMD8 Error,[6]; [20],1.03 kcal/mol
same,Arrow PIMD8 Error,[6],1.03 kcal/mol
same,SMD Error,[7],0.69 kcal/mol
same,COSMO/Molpro Error,[9],3.97 kcal/mol
same,log D Arrow MD Error,[11]; [22],0.65
same,log D Arrow PIMD Error,[11]; [23],0.09
same,Exp (log D),[12],−0.21
CCC(=O)OC [MethylPropionate],PCM free energy of hydration,[2],-3.50 kcal/mol
same,CHEX Exp (solvation),[10]; [21],-3.71 kcal/mol
same,FML error,[3],0.20 kcal/mol
same,SMD free energy of hydration,[4],-2.70 kcal/mol
same,water Exp (hydration),[8]; [18],-2.93 kcal/mol
same,PCM Error,[5],0.57 kcal/mol
same,water Arrow MD Error,[6]; [19],0.62 kcal/mol
same,water Arrow PIMD8 Error,[6]; [20],0.10 kcal/mol
same,Arrow PIMD8 Error,[6],0.10 kcal/mol
same,SMD Error,[7],0.23 kcal/mol
same,COSMO/Molpro Error,[9],3.75 kcal/mol
same,log D Arrow MD Error,[11]; [22],0.84
same,log D Arrow PIMD Error,[11]; [23],0.45
same,Exp (log D),[12],0.57
CCCC [Butane],COSMO-RS error,[1],0.03 kcal/mol
same,PCM free energy of hydration,[2],-0.20 kcal/mol
same,CHEX Exp (solvation),[10]; [21],-2.72 kcal/mol
same,CHEX Exp (solvation),"[10]; Table 4, solvation free energy in cyclohexane",-2.72 kcal/mol
same,SMD free energy of hydration,[4],2.00 kcal/mol
same,AMOEBA error,[13],0.99 kcal/mol
same,water Exp (hydration),[8]; [18],2.10 kcal/mol
same,water Exp (hydration),"[8]; Table 4, neutral amino-acid analogues",2.10 kcal/mol
same,Exp (hydration),"[8]; Table 5, free energy of hydration",2.10 kcal/mol
same,GAFF,[14],2.54 kcal/mol
same,PCM Error,[5],2.30 kcal/mol
same,water Arrow MD Error,[6]; [19],0.70 kcal/mol
same,water Arrow PIMD8 Error,[6]; [20],0.04 kcal/mol
same,water Arrow MD Error,"[6]; Table 4, error of MD hydration free energy vs experiment",0.70 kcal/mol
same,water Arrow PIMD8 Error,"[6]; Table 4, error of PIMD8 hydration free energy vs experiment",0.04 kcal/mol
same,Arrow error,"[6]; Table 5, error of Arrow PIMD8 hydration free energy vs experiment",0.04 kcal/mol
same,Arrow PIMD8 Error,[6],0.04 kcal/mol
same,SMD Error,[7],0.10 kcal/mol
same,COSMO/Molpro Error,[9],2.65 kcal/mol
same,AMOEBA,[15],1.11 kcal/mol
same,GAFF error,[16],0.44 kcal/mol
same,log D Arrow MD Error,[11]; [22],0.18
same,log D Arrow PIMD Error,[11]; [23],0.17
same,logD Arrow MD Error,"[11]; Table 4, error of MD logD vs experiment",0.18
same,logD Arrow PIMD Error,"[11]; Table 4, error of PIMD logD vs experiment",0.17
same,Exp (log D),[12],3.54
same,logD Exp (logD),[12]; Table 4,3.54
same,CHEX Arrow MD Error,[17]; error of MD cyclohexane solvation free energy vs experiment,0.46 kcal/mol
same,CHEX Arrow PIMD4 Error,[17]; error of PIMD4 cyclohexane solvation free energy vs experiment,0.20 kcal/mol
CCC(C)O (centres unmarked) [2-Butanol],COSMO-RS error,[1],0.77 kcal/mol
same,FML error,[3],0.61 kcal/mol
same,water Exp (hydration),[8]; [18],-4.58 kcal/mol
same,water Arrow MD Error,[6]; [19],1.41 kcal/mol
same,water Arrow PIMD8 Error,[6]; [20],0.08 kcal/mol
same,Arrow PIMD8 Error,[6],0.08 kcal/mol
same,COSMO/Molpro Error,[9],1.11 kcal/mol
CCOC(C)=O [EthylAcetate],PCM free energy of hydration,[2],-3.70 kcal/mol
same,CHEX Exp (solvation),[10]; [21],-3.55 kcal/mol
same,FML error,[3],0.02 kcal/mol
same,SMD free energy of hydration,[4],-3.10 kcal/mol
same,water Exp (hydration),[8]; [18],-3.12 kcal/mol
same,PCM Error,[5],0.58 kcal/mol
same,water Arrow MD Error,[6]; [19],0.28 kcal/mol
same,water Arrow PIMD8 Error,[6]; [20],0.32 kcal/mol
same,Arrow PIMD8 Error,[6],0.32 kcal/mol
same,SMD Error,[7],0.02 kcal/mol
same,COSMO/Molpro Error,[9],3.95 kcal/mol
same,log D Arrow MD Error,[11],0.46
same,log D Arrow PIMD Error,[11],0.13
same,Exp (log D),[12],0.32
